Laboratory results: patent US20110301199A1, “COMPOSITIONS AND METHODS FOR TREATING MYELODYSPLASTIC SYNDROME” (Telik, Inc., priority 2010, published 2011)

Key:
[1] = test system: Low to Intermediate-1 Risk Myelodysplastic Syndrome; assay: Clinical study of ezatiostat hydrochloride tablets in MDS patients: adverse events (safety); type: in vivo, human
Procedure: Eighty-seven patients were randomized and treated at 23 investigational sites. After initial dose ranging in 14 patients, two dose levels were selected for further study. Subsequently, 37 patients were treated at 3 grams daily for two weeks followed by a one week rest period, and 36 patients were treated at 2 grams daily for three weeks followed by a one week rest period. The data on these 73 patients was pooled for this preliminary analysis.
The safety data is based on all patients treated.

[2] = test system: Low to Intermediate-1 Risk Myelodysplastic Syndrome; assay: Clinical study of ezatiostat hydrochloride tablets in IPSS low to intermediate-1 risk MDS patients: hematologic improvement and efficacy; type: in vivo, human; conditions: for significant RBC transfusion reduction: five of 11 patients; for HI-E Response Rate (95% Confidence Interval): prior DMTI Yes, N 15
Procedure: Subsequently, 37 patients were treated at 3 grams daily for two weeks followed by a one week rest period, and 36 patients were treated at 2 grams daily for three weeks followed by a one week rest period.
The median age was 72 years, with a patient population distribution of IPSS low risk (23 patients, 32%) and intermediate-1 risk (50 patients, 68%).

[3] = 1 g b.i.d. 3 weeks on & 1 week off (N = 31)
[4] = 1 g b.i.d. 3 weeks on & 1 week off, 6 responders
[5] = 1.5 g b.i.d. 2 weeks on & 1 week off (N = 29)
[6] = 1.5 g b.i.d. 2 weeks on & 1 week off, 7 responders

## CCOC(=O)[C@@H](N)CCC(=O)N[C@@H](CSCc1ccccc1)C(=O)N[C@@H](C(=O)OCC)c1ccccc1 [Telintra, ethyl (2S)-2-amino-5-[[(2R)-3-benzylsulfanyl-1-[[(1R)-2-ethoxy-2-oxo-1-phenylethyl]amino]-1-oxopropan-2-yl]amino]-5-oxopentanoate]
[1]; all patients treated
  diarrhea, Grade 1 adverse event: 25%
  diarrhea, Grade 2 adverse event: 7%
  diarrhea, Grade 3 adverse event: 3%
  nausea, Grade 1 adverse event: 45%
  nausea, Grade 2 adverse event: 16%
  nausea, Grade 3 adverse event: 1%
  vomiting, Grade 1 adverse event: 30%
  vomiting, Grade 2 adverse event: 12%
  vomiting, Grade 3 adverse event: 2%
[1]; patients with prior DMTI treatment
  incidence of GI AEs with prior DMTI treatment: increased incidence
[2]; 1 g b.i.d. 3 weeks on & 1 week off
  Duration of HI-E Response, Median (95% CI): 46.1 (10.0-46.1) Weeks
[2]; [3]
  Time to HI-E Response, Max: 11.3 Weeks
  Time to HI-E Response, Mean: 8.9 (1.29) ^ Weeks
  Time to HI-E Response, Min: 8.0 Weeks
[2]; [4]
  Duration of HI-E Response, # Censored: 4 (66.7%)
  Duration of HI-E Response, # Event: 2 (33.3%)
[2]; 1.5 g b.i.d. 2 weeks on & 1 week off
  Duration of HI-E Response, Median (95% CI): 18.4 (3.1-51.0) Weeks
[2]; [5]
  Time to HI-E Response, Max: 10.0 Weeks
  Time to HI-E Response, Mean: 8.4 (0.72) ^ Weeks
  Time to HI-E Response, Min: 8.0 Weeks
[2]; [6]
  Duration of HI-E Response, # Censored: 2 (28.6%)
  Duration of HI-E Response, # Event: 5 (71.4%)
[2]; 4 of 38 RBC transfusion-dependent patients
  RBC transfusion independence: 11%
[2]; 11 of 38 RBC transfusion-dependent patients
  clinically significant RBC transfusion reductions (reduction of 4 U/8 weeks, IWG 2006): 29%
[2]; logistic regression analysis
  effect of prior Revlimid treatment on HI-E response: enhance
[2]; logistic regression analysis, p=0.023
  decrease in the odds for a HI-E response predicted by prior DMTI treatment: five-fold
[2]; no prior Revlimid, no prior DMTI
  significant RBC transfusion reduction: 45%
[2]; one patient
  complete remission continued following discontinuation of therapy: more than 12 months
[2]; prior Revlimid No
  HI-E Response Rate (95% Confidence Interval): 0.0% (0.0%-21.8%)
[2]; prior Revlimid Yes, listed as ezatiostat hydrochloride
  HI-E Response Rate (95% Confidence Interval): about 20%
[2]; prior Revlimid, no prior DMTI
  significant RBC transfusion reduction: 45%
[2]; prior Revlimid, no prior DMTI, three of 11 patients
  transfusion independence: 27%
